Results published in patent US5929099A, “Pharmaceutical composition for inhibiting the growth of cancers” (Procter & Gamble Co., priority 1996, dated 1999).
≈ marks a conversion by molar mass, not a printed value. Like-named read-outs stand apart in the source and are kept apart here.

How the values were obtained:
[1] = test system: colon tumor cells (HT-29); experiment: Related study, colon tumor cells, optical density (Table 3); type: cell-based, human; conditions: for Optical Density: 0-Control 0.398
Text: (§1) Table 3 summarizes the results

HIV = experiment: In vitro acute model for HIV, viral replication; type: cell-based; conditions: read-out: inhibited viral replication
Experimental: In an in vitro acute model for HIV carbendazim inhibited viral replication by 100% at 4 μg/ml and AZT inhibited viral replication by 98% at 1 μg/ml. Thiabendazole inhibited viral replication by 98% at 60 μg/ml.

[2] = test system: HIV-1 in chronic infected U1 cells (HIV monocytes); experiment: HIV chronic study, monocyte HIV replication; type: cell-based; conditions: Human immunodeficiency virus 1, Monocyte; 60 μg/ml; read-out: suppressed replication in the HIV monocytes
Experimental: (§2) These cells were treated with test samples.

[3] = test system: breast tumor cells (MCF-7); experiment: Related study, breast tumor cells, optical density (Table 3); type: cell-based; conditions: for Optical Density: 0-Control 0.245
Text: as §1

lung tumor cells (A-549) = experiment: Related study, lung tumor cells, optical density (Table 3); type: cell-based, human; conditions: for Optical Density: 0-Control 0.600
Text: as §1

[4] = test system: HIV-1 in chronic infected ACH-2 cells (T-cell); experiment: HIV chronic study, T-cell HIV replication; type: cell-based; conditions: Human immunodeficiency virus 1, ACH-2; 60 μg/ml; increase; read-out: T-cell HIV replication was increased
Experimental: as §2

A549 lung tumor cells = experiment: MTT cell viability, lung tumor cells (Table 1); type: cell-based; conditions: Homo sapiens, A549, 120 h, approx. 5 days, read-out: EC-50 Result
Experimental: (§3) The following cell culture tests were performed to test the toxicity of the benzimidazole compounds on colon, breast and lung human tumor cells. The viability of the cells were tested by looking at MTT (3-[4,5-dimethylthiazol-2-yl]-2,5-diphenyltetrazolium bromide) reduction. MTT assay is a well known measure of cell viability.
(§4) The colon tumor cells (HT29 from American Type Culture Collection (ATCC)) and the breast cells (MX1 from cell lines from ATCC) were cultured in Eagle's Miminal Essential Medium with 10% fetal bovine serum. The lung tumor cells (A549 from ATCC cell lines) were cultured in Ham's F12 medium with 10% fetal bovine serum.
(§5) The tumor cells were passaged and seeded into culture flasks at the desired cell densities. The culture medium was decanted and the cell sheets were washed twice with phosphate buffered saline (PBS). The cells were trypsinized and triturated prior to seeding the flasks. Unless otherwise indicated the cultures were incubated at 37±1° C. in a humidified atmosphere of 5±1% carbon dioxide in air. The cultures were incubated until they were 50-80% confluent.
(§6) The cells were subcultured when the flasks were subconfluent. The medium was aspirated from the flasks and the cell sheets rinsed twice with PBS. Next, the Trypsin Solution was added to each flask to cover the cell sheet. The Trypsin Solution was removed after 30-60 seconds and the flasks were incubated at room temperature for two to six minutes. When 90% of the cells became dislodged, growth medium was added. The cells were removed by trituration and transferred to a sterile centrifuge tube. The concentration of cells in the suspension was determined, and an appropriate dilution was made to obtain a density of 5000 cells/ml. The cells were subcultured into the designated wells of the 96-well bioassay plates (200 microliter cell suspension per well). PBS was added to all the remaining wells to maintain humidity. The plates were then incubated overnight before test article treatment.
(§7) Each dose of test article was tested by treating quadruplicate wells of cultures with 100 microliter of each dilution. Those wells designated as solvent controls received an additional 100 microliter of methanol control; negative controls wells received an additional 100 microliters of treatment medium. PBS was added to the remaining wells not treated with test article or medium. The plates were then incubated for approximately 5 days.
(§8) At the end of the 5 day incubation, each dose group was examined microscopically to assess toxicity. A 0.5 mg/ml dilution of MTT was made in treatment medium, and the dilution was filtered through a 0.45 micrometer filter to remove undissolved crystals. The medium was decanted from the wells of the bioassy plates. Immediately thereafter, […] of the filtered MTT solution was added to all test wells except for the two untreated blank test wells. The two blank wells received 200 microliters of treatment medium. The plates were returned to the incubator for about 3 hours. After incubation, the MTT containing medium was decanted. […] was added to each well and the plates were shaken at room temperature for about 2 hours.
(§9) The absorbance at 550 mn (OD550) of each well was measured with a Molecular Devices (Menlo Park, Calif.) VMax plate reader.
(§10) The mean OD550 of the solvent control wells and that of each test article dilution, and that of each of the blank wells and the positive control were calculated. The mean OD550 of the blank wells was subtracted from the mean of the solvent control wells, and test article wells, respectively to give the corresponding mean OD550. [formula]
(§11) Dose response curves were prepared as semi-log plots with % of control on the ordinate (linear) and the test article concentration on the abscissa (logarithmic). The EC50 was interpolated from the plots for each test article.
(§12) For the test articles administered in methanol, separate responses were prepared to correct for the methanol data. […]

MX1 breast tumor cells = experiment: MTT cell viability, breast tumor cells (Table 1); type: cell-based; conditions: Homo sapiens, 120 h, approx. 5 days, read-out: EC-50 Result
Experimental: as §3, §4, §5, §6, §7, §8, §9, §10, §11, §12

HT29 colon tumor cells = experiment: MTT cell viability, colon tumor cells (Table 1); type: cell-based; conditions: Homo sapiens, HT-29, 120 h, approx. 5 days, read-out: EC-50 Result
Experimental: as §3, §4, §5, §6, §7, §8, §9, §10, §11, §12

normal healthy cells = experiment: Toxicity to normal healthy cells, overall comparison; type: cell-based; conditions: versus adriamycin
Text: (§13) In normal healthy cells, the following results were obtained.

[5] = Toxicity to normal healthy cells (Table 2); type: cell-based; conditions: read-out: EC-50 (the source's name)
Text: The EC50 is the concentration at which one half of the cells are killed.
as §13

leukemia, P388 = experiment: In vivo mouse model for leukemia, life span
lung A549 tumors = experiment: Mouse model for lung cancer, subcutaneous tumor growth; type: in vivo; conditions: same dose (500 mg/kg); A549 implanted subcutaneously
Experimental: (§14) In a mouse model for breast, lung and colon cancer Carbendazim slowed tumor growth. MX1 breast cancer tumors implanted subcutaneously under the mice skin were treated with 500 mg/kg of Carbendazim. Tumor growth was slowed by 42%. Carbendazim slowed tumor growth in lung A549 tumors implanted subcutaneously under the mice skin by 57% at the same dose. In a screening test of HT29 tumors implanted subcutaneously under the mice skin, tumor growth was slowed 54% at 2500 mg/kg dose of Carbendazim.

HT29 tumors = experiment: Mouse model for colon cancer, subcutaneous tumor growth; type: in vivo; conditions: 2500 mg/kg; HT29 implanted subcutaneously; screening test
Experimental: as §14

melanoma, B 16 = experiment: In vivo mouse model for melanoma, life span
MX1 breast cancer tumors = experiment: Mouse model for breast cancer, subcutaneous tumor growth; type: in vivo; conditions: 500 mg/kg; MX1 implanted subcutaneously
Experimental: as §14

[6] = bronchial cells, Broncheal Cells, first value
[7] = bronchial cells, Broncheal Cells, second value
[8] = kerotinoyle cells, second value

## c1ccc2[nH]c(-c3cscn3)nc2c1 [Thiabendazole, 2-(4-thiazolyl)-1 H-benzimidazole]
[1]
  killing of tumor cells: effectively killed these cells
[1]; 0.87 ppm
  Optical Density: 0.852
[1]; 3.46 ppm
  Optical Density: 0.713
[1]; 17.3 ppm
  Optical Density: 0.204
[1]; 35 ppm
  Optical Density: 0.011
[1]; 173 ppm
  Optical Density: 0.005
HIV; Human immunodeficiency virus 1, 60 μg/ml
  inhibition at 60 µg/mL: 98%
[2]
  inhibition at 60 µg/mL: 74%
[3]
  killing of tumor cells: effectively killed these cells
[3]; 0.87 ppm
  Optical Density: 0.507
[3]; 3.46 ppm
  Optical Density: 0.466
[3]; 17.3 ppm
  Optical Density: 0.258
[3]; 35 ppm
  Optical Density: 0.025
[3]; 173 ppm
  Optical Density: 0.007
Lung tumor cells (A-549)
  killing of tumor cells: effectively killed these cells
Lung tumor cells (A-549); 0.87 ppm
  Optical Density: 1.32
Lung tumor cells (A-549); 3.46 ppm
  Optical Density: 1.12
Lung tumor cells (A-549); 17.3 ppm
  Optical Density: 0.851
Lung tumor cells (A-549); 35 ppm
  Optical Density: 0.411
Lung tumor cells (A-549); 173 ppm
  Optical Density: 0.007
[4]
  activation at 60 µg/mL: 26%

## CCCCNC(=O)n1c(NC(=O)OC)nc2ccccc21 [benomyl, methyl 1-(butylcarbamoyl)2-benzimidazolecarbamate]
A549 lung tumor cells; A549, first column
  IC50: 0.98 µg/mL (≈ 3.38 µM)
A549 lung tumor cells; A549, second column
  IC50: 1.02 µg/mL (≈ 3.51 µM)
MX1 breast tumor cells; MX1, first column
  IC50: 1.42 µg/mL (≈ 4.89 µM)
MX1 breast tumor cells; MX1, second column
  IC50: 2.42 µg/mL (≈ 8.34 µM)
HT29 colon tumor cells; HT29, first column
  IC50: 0.742 µg/mL (≈ 2.56 µM)
HT29 colon tumor cells; HT29, second column
  IC50: 0.747 µg/mL (≈ 2.57 µM)
Normal healthy cells
  toxicity to normal healthy cells relative to adriamycin: much less toxic to normal healthy cells than adriamycin
[5]; [6]
  CC50: 0.728 µg/mL (≈ 2.51 µM)
[5]; [7]
  CC50: 0.682 µg/mL (≈ 2.35 µM)
[5]; fibroblasts, first value
  CC50: 3.24 µg/mL (≈ 11.2 µM)
[5]; fibroblasts, second value
  CC50: 2.81 µg/mL (≈ 9.68 µM)
[5]; kerotinoyle cells, first value
  CC50: 3.26 µg/mL (≈ 11.2 µM)
[5]; [8]
  CC50: 2.4 µg/mL (≈ 8.27 µM)

## COC(=O)Nc1nc2ccccc2[nH]1 [carbendazim, methyl 2-benzimidazole carbamate]
leukemia, P388; 1000 mg/kg
  increased the life span of the mice versus control: 129%
leukemia, P388; 2000 mg/kg
  increased the life span of the mice versus control: 148%
leukemia, P388; 4000 mg/kg
  increased the life span of the mice versus control: 189%
A549 lung tumor cells; A549, first column
  IC50: 0.856 µg/mL (≈ 4.48 µM)
A549 lung tumor cells; A549, second column
  IC50: 0.836 µg/mL (≈ 4.37 µM)
Lung A549 tumors
  slowed tumor growth by: 57%
HIV; Human immunodeficiency virus 1, 4 μg/ml
  inhibition at 4 µg/mL: 100%
MX1 breast tumor cells; MX1, first column
  IC50: 0.829 µg/mL (≈ 4.34 µM)
MX1 breast tumor cells; MX1, second column
  IC50: 0.856 µg/mL (≈ 4.48 µM)
HT29 colon tumor cells; HT29, first column
  IC50: 0.621 µg/mL (≈ 3.25 µM)
HT29 colon tumor cells; HT29, second column
  IC50: 0.662 µg/mL (≈ 3.46 µM)
HT29 tumors
  tumor growth was slowed: 54%
Normal healthy cells
  toxicity to normal healthy cells relative to adriamycin: much less toxic to normal healthy cells than adriamycin
melanoma, B 16; 1000 mg/kg
  increased the life span versus control: 131%
melanoma, B 16; 2000 mg/kg
  increased the life span versus control: 163%
melanoma, B 16; 4000 mg/kg
  increased the life span versus control: 187%
[5]; [6]
  CC50: 0.32 µg/mL (≈ 1.67 µM)
[5]; [7]
  CC50: 0.506 µg/mL (≈ 2.65 µM)
[5]; fibroblasts, first value
  CC50: 1.52 µg/mL (≈ 7.95 µM)
[5]; fibroblasts, second value
  CC50: 1.42 µg/mL (≈ 7.43 µM)
[5]; kerotinoyle cells, first value
  CC50: 0.752 µg/mL (≈ 3.93 µM)
[5]; [8]
  CC50: 0.822 µg/mL (≈ 4.3 µM)
MX1 breast cancer tumors
  Tumor growth was slowed by: 42%
